From the NIST ThermoML archive (doi:10.1021/je900545v) come the findings set out here.

± gives the expanded uncertainty stated by the source.

The conditions of this series: 298.15 K, 101 kPa, Liquid.

For the compound `C=CCn1cc[n+](C)c1.[Cl-]` [1-allyl-3-methylimidazolium chloride], the mass density (in general, the mass of a sample divided by its volume) stood at 1166 ± 2.7 kg/m3 and the viscosity – broadly, the internal friction of a fluid under shear – was 821 ± 310 mPa·s. For the setting “DDSJ-308A Conductometer”, the electrical conductivity was found to be 0.00695 ± 0.00069 S/m.
